Test results: US9072762B2, “Natural composition to decrease effects of a high fat diet” (Board of Supervisors of Louisiana State University And …, priority 2009, dated 2015)

What was measured:
bFGF = assay: Western blot of HUVEC cell lysates for bFGF expression; format: cell-based, human; details: 24 hrs, concentrations up to about 40 μg/ml
Protocol: (§1) The HUVEC assay used human umbilical vein endothelial cells purchased from the American Type Culture Collection (ATCC # CRL-1730, Manassas, Va.). Human umbilical vein endothelial cells (HUVEC) were grown in M199 media containing 20% fetal bovine serum, 30 μg/ml endothelial cell growth supplements, 4 mM L-glutamin, 100 U/ml penicillin, and 100 μg/ml streptomycin. Cells were incubated at 37° C. in a humidified atmosphere of 5% CO2. […] Cells were then lysed with lysis buffer containing 20 mM MOPS, 2 mM EGTA, 5 mM EDTA, 30 mM NaF, 40 mM (3-glycerophosphate, 20 mM sodium pyruvate, 0.5% Triton X-100, and 1 mM sodium orthovanadate with protease inhibitor cocktail (Sigma), and the cell lysates were subjected to protein analysis and western blotting analysis to assess for VEGF (vascular endothelial growth factor), FGF or bFGF (basic fibroblast growth factor), and FLK-1 (a VEGFR2 receptor protein) using the relevant antibodies of VEFG (R&D System), bFGF (Upstate Biotechnology); FLK-1 (Santa Cruz Biotechnology). (See Ma, J. et al., “PTEN regulate angiogenesis through PI3k/AktNEGF signaling pathway in human pancreatic cancer cells,” Mol. Cell Biochem., vol. 331, pp. 161-171 (2009); and Sukhthanjar, M., et al., “A green tea component suppresses posttranslational expression of basic fibroblast growth factor in colorectal cancer. Gastroenterology,” vol. 134, pp. 1972-1980 (2008)). β-Actin was used as a quality control of the assays.

[1] = format: in vivo, rat; details: for Oral bioavailability / absorption: rat, in vivo
Protocol: Thirty-two normal male SD rats were used in the experiment. Prior to treatment, all rats were fasted overnight. The treated group (n=24) received the RUS extract at a dose of 1 g/kg of body weight (0.1% w/w), and the control group (n=8) received the same volume of water via daily gavage for 3 consecutive days. All rats were given free access to food and water after the gavage. Urine was collected cumulatively for 24 hours on the third day after treatment began.

VEGF = assay: Western blot of HUVEC cell lysates for VEGF expression; format: cell-based, human; details: 24 hrs, concentrations up to about 40 μg/ml
Protocol: as §1

[2] = tested on: FLK-1 (a VEGFR2 receptor protein); assay: Western blot of HUVEC cell lysates for FLK-1 expression; format: cell-based, human; details: 24 hrs, concentrations up to about 40 μg/ml
Protocol: The HUVEC assay used human umbilical vein endothelial cells purchased from the American Type Culture Collection (ATCC # CRL-1730, Manassas, Va.). Human umbilical vein endothelial cells (HUVEC) were grown in M199 media containing 20% fetal bovine serum, 30 μg/ml endothelial cell growth supplements, 4 mM L-glutamin, 100 U/ml penicillin, and 100 μg/ml streptomycin. Cells were incubated at 37° C. in a humidified atmosphere of 5% CO2. […] Cells were then lysed with lysis buffer containing 20 mM MOPS, 2 mM EGTA, 5 mM EDTA, 30 mM NaF, 40 mM (3-glycerophosphate, 20 mM sodium pyruvate, 0.5% Triton X-100, and 1 mM sodium orthovanadate with protease inhibitor cocktail (Sigma), and the cell lysates were subjected to protein analysis and western blotting analysis to assess for VEGF (vascular endothelial growth factor), FGF or bFGF (basic fibroblast growth factor), and FLK-1 (a VEGFR2 receptor protein) using the relevant antibodies of VEFG (R&D System), bFGF (Upstate Biotechnology); FLK-1 (Santa Cruz Biotechnology). (See Ma, J. et al., “PTEN regulate angiogenesis through PI3k/AktNEGF signaling pathway in human pancreatic cancer cells,” Mol. Cell Biochem., vol. 331, pp. 161-171 (2009); and Sukhthanjar, M., et al., “A green tea component suppresses posttranslational expression of basic fibroblast growth factor in colorectal cancer. Gastroenterology,” vol. […]

[3] = rats, 24 hr urine after oral RUS 1.0 g/kg of body weight

| Oral bioavailability / absorption [1] | Unmetabolized compound in the urine [1, 3] [µg] | Unmetabolized compound in urine as % of amount orally administered [1, 3] | Compound | Expression of bFGF (bFGF) | Expression of VEGF (VEGF) | Expression of FLK-1 [2] |
| --- | --- | --- | --- | --- | --- | --- |
| orally bioavailable |  |  | O=c1oc2c(O)c(O)cc3c(=O)oc4c(O)c(O)cc1c4c23 [ellagic acid] | did not suppress the expression of bFGF | inhibited the expression of VEGF in a concentration-dependent manner |  |
|  | 91.7 | about 4.5% | O=C(O)c1cc(O)c(O)c(O)c1 [gallic acid] | did not suppress the expression of bFGF | inhibited the expression of VEGF in a concentration-dependent manner | slightly reduced the expression of FLK-1 |
| orally bioavailable |  |  | C=C1C[C@@]23CC[C@H]4[C@@](C)(CCC[C@@]4(C)C(=O)O[C@@H]4O[C@H](CO)[C@@H](O)[C@H](O)[C@H]4O)[C@@H]2CC[C@]1(O[C@@H]1O[C@H](CO)[C@@H](O)[C@H](O)[C@H]1O)C3 [rubusoside] | did not inhibit the expression of either bFGF or VEGF | did not inhibit the expression of either bFGF or VEGF | reduced the expression of FLK-1 |
